Results: ChEMBL document CHEMBL1201862, “PubChem BioAssay data set” (2004)
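Assay format: 96-well plates, 48-hour exposure. Here, GI50 denotes the concentration required for 50% inhibition of growth.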 Active and inactive are the calls of the source. Rule as the data show it: active = GI50 up to about 1.1 µM and inactive = higher.

Legend:
Assay in all cases: DTP human tumour cell line panel, 48 h
SN12C = test system: SN12C
SK-MEL-2 = test system: SK-MEL-2
TK-10 = test system: TK-10
NCI-H226 = test system: NCI-H226
Hs-578T = test system: Hs-578T
IGROV-1 = test system: IGROV-1
U-251 = test system: U-251
HCT-116 = test system: HCT-116
RXF 393 = test system: RXF 393
Malme-3M = test system: Malme-3M
SK-MEL-5 = test system: SK-MEL-5
UACC-62 = test system: UACC-62
SF-268 = test system: SF-268
786-0 = test system: 786-0
A498 = test system: A498
ACHN = test system: ACHN
UO-31 = test system: UO-31
SF-539 = test system: SF-539

Measured: GI50

COc1c(NC(C)=O)c2ccccc2c2ccccc12
inactive: SN12C > 100 µM | SK-MEL-2 > 100 µM | TK-10 > 100 µM | NCI-H226 49.5 µM | Hs-578T > 100 µM | IGROV-1 > 100 µM | U-251 > 100 µM | HCT-116 > 100 µM | RXF 393 > 100 µM | Malme-3M > 100 µM | SK-MEL-5 > 100 µM | UACC-62 > 100 µM | SF-268 > 100 µM | 786-0 > 100 µM | A498 > 100 µM | ACHN > 100 µM | UO-31 89.3 µM

C[Si](C)(c1ccc(C(=O)O)cc1)c1ccc(C(=O)O)cc1
inactive: SN12C > 100 µM | SK-MEL-2 > 100 µM | SF-539 > 100 µM | TK-10 > 100 µM | NCI-H226 > 100 µM | Hs-578T > 100 µM | IGROV-1 > 100 µM | U-251 > 100 µM | HCT-116 > 100 µM | RXF 393 > 100 µM | Malme-3M > 100 µM | SK-MEL-5 > 100 µM | UACC-62 > 100 µM | SF-268 > 100 µM | 786-0 > 100 µM | A498 > 100 µM | ACHN > 100 µM

CC12c3c4ccc(C=O)c3Oc3ccc(C=O)c(c31)Oc1ccc(C=O)c(c12)O4
inactive: SN12C > 25 µM | SK-MEL-2 > 25 µM | SF-539 > 25 µM | NCI-H226 > 25 µM | Hs-578T > 25 µM | IGROV-1 > 25 µM | U-251 > 25 µM | HCT-116 > 25 µM | RXF 393 > 25 µM | Malme-3M > 25 µM | UACC-62 > 25 µM | SF-268 > 25 µM | 786-0 > 25 µM | A498 > 25 µM | ACHN > 25 µM | UO-31 > 25 µM

N#CCCN(CCC#N)c1ccc(/C=C2\N=C(c3ccccc3)N(c3ccc(C(=O)O)cc3)C2=O)cc1
inactive: SN12C 70.1 µM | SK-MEL-2 52.5 µM | SF-539 24.4 µM | TK-10 > 100 µM | NCI-H226 27.9 µM | Hs-578T 22.3 µM | IGROV-1 20.3 µM | U-251 30.2 µM | HCT-116 33.7 µM | RXF 393 40.7 µM | SK-MEL-5 36.6 µM | UACC-62 23.8 µM | SF-268 21.1 µM | 786-0 52 µM | A498 > 100 µM | ACHN 42.5 µM | UO-31 77.1 µM

O=c1c2ccccc2nc2n1C(c1ccc([N+](=O)[O-])cc1)C2(c1ccccc1)c1ccccc1 (stereo not given)
inactive: SN12C > 100 µM | SK-MEL-2 > 100 µM | SF-539 > 100 µM | TK-10 > 100 µM | Hs-578T 66.2 µM | IGROV-1 > 100 µM | U-251 > 100 µM | HCT-116 > 100 µM | RXF 393 > 100 µM | Malme-3M > 100 µM | SK-MEL-5 > 100 µM | UACC-62 > 100 µM | SF-268 > 100 µM | 786-0 > 100 µM | A498 > 100 µM | ACHN > 100 µM

CN1C2CCC1CC(CCOC(c1ccc(F)cc1)c1ccc(F)cc1)C2 (stereo not given)
inactive: SN12C 18.4 µM | SK-MEL-2 16.9 µM | SF-539 15.9 µM | TK-10 15.3 µM | NCI-H226 15.3 µM | Hs-578T 17.8 µM | IGROV-1 17.3 µM | U-251 14.9 µM | HCT-116 12.7 µM | RXF 393 10.4 µM | Malme-3M 15.1 µM | SK-MEL-5 9.23 µM | SF-268 15.8 µM | 786-0 15.9 µM | A498 17.8 µM | ACHN 17.1 µM | UO-31 14.6 µM
